Assay results: ChEMBL document CHEMBL1133126, “Non-peptidic phenyl-based thrombin inhibitors: exploring structural requirements of the S1 specificity pocket with amidines” (Bioorg Med Chem Lett, 2000)
One block for each compound: values may come before it.

How the values were obtained:
Coagulation factor X [1] = biological target: T1, Coagulation factor X (Homo sapiens, UniProt P00742); assay: Compound was evaluated for inhibition of Coagulation factor X at 7.5 uM
[2] = biological target: T2, Chymotrypsin-C (Homo sapiens) (UniProt Q99895); assay: Compound was evaluated for inhibition of Serine protease chymotrypsin at 15 uM
T2 sequence (whole entry): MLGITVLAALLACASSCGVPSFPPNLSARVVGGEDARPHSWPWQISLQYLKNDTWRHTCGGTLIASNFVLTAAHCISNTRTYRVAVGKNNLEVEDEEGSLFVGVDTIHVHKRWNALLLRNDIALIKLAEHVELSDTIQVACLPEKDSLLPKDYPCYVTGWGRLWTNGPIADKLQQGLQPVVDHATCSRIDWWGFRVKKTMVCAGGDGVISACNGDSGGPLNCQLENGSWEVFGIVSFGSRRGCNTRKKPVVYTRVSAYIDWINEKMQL

Prothrombin = Prothrombin (Homo sapiens, UniProt P00734); assay: Compound was evaluated for inhibition of Thrombin
[3] = biological target: T3, Serine protease 1 (Bos taurus) (UniProt P00760); assay: Compound was evaluated for inhibition of Trypsin at uM; conditions: concentration not given here
T3 sequence (whole entry): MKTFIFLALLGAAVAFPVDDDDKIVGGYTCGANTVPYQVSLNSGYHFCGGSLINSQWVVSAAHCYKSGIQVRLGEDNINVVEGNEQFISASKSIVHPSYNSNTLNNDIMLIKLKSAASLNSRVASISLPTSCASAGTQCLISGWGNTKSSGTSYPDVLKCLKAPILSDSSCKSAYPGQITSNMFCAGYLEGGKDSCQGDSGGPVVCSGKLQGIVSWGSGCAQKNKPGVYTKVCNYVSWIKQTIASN

[4] = biological target: T2, Chymotrypsin-C (Homo sapiens); assay: Compound was evaluated for inhibition of Serine protease chymotrypsin at […]
Serine protease 1 = biological target: T4, Serine protease 1 (Bos taurus, UniProt P00760); assay: Compound was evaluated for inhibition of Trypsin
T4 sequence (P00760 whole entry): T3 sequence (whole entry)

Coagulation factor X [5] = biological target: T1, Coagulation factor X; assay: Compound was evaluated for inhibition of Coagulation factor X at 1.6 uM
[6] = biological target: T3, Serine protease 1 (Bos taurus); assay: Compound was evaluated for inhibition of Trypsin at 1.6 uM
Coagulation factor X [7] = biological target: T1, Coagulation factor X; assay: Compound was evaluated for inhibition of Coagulation factor X
[8] = biological target: T2, Chymotrypsin-C (Homo sapiens); assay: Compound was evaluated for inhibition of Serine protease chymotrypsin at 1.7 uM
Coagulation factor X [9] = biological target: T1, Coagulation factor X; assay: Compound was evaluated for inhibition of Coagulation factor X at 1 uM
[10] = biological target: T2, Chymotrypsin-C (Homo sapiens); assay: Compound was evaluated for inhibition of Serine protease chymotrypsin at 1 uM
[11] = biological target: T3, Serine protease 1 (Bos taurus); assay: Compound was evaluated for inhibition of Trypsin at 1 uM
[12] = biological target: T3, Serine protease 1 (Bos taurus); assay: Compound was evaluated for inhibition of Trypsin at 15 uM
Coagulation factor X [13] = biological target: T1, Coagulation factor X; assay: Compound was evaluated for inhibition of Coagulation factor X at […]

T1 sequence (P00742 41-179 limits assumed): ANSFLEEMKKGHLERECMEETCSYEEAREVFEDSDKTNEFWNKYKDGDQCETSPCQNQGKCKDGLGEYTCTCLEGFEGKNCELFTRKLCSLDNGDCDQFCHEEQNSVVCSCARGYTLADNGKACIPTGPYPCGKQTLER
T1 sequence (P00742 235-488 limits assumed): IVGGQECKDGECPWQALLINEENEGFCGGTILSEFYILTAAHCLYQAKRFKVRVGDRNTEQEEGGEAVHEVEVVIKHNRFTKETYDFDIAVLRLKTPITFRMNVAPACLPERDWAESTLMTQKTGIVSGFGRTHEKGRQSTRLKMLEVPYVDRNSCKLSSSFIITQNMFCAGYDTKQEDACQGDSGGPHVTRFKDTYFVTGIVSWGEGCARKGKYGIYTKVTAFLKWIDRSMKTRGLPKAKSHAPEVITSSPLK

SMILES: Cc1cc(OCc2cccc(C(=N)N)c2)cc(OS(=O)(=O)c2ccccc2Cl)c1
inhibition [4]: 0%
Ki (Prothrombin): 99 nM
Ki (Serine protease 1): 1500 nM

SMILES: Cc1cc(OCc2ccc(C(=N)N)cc2)cc(OS(=O)(=O)c2ccccc2Cl)c1
Ki (Coagulation factor X [7]): 17 µM
inhibition [8]: 0%
Ki (Prothrombin): 110 nM
Ki (Serine protease 1): 2700 nM

SMILES: Cc1cc(OCCCCCC(=N)N)cc(OS(=O)(=O)c2ccccc2Cl)c1
Ki (Prothrombin): 69 nM
inhibition [12]: 0%
inhibition (Coagulation factor X [13]): 0%

SMILES: Cc1cc(OCCCCN=C(N)N)cc(OS(=O)(=O)c2ccccc2Cl)c1
Ki (Serine protease 1): 42000 nM

Other lines, results leading:

inhibition (Coagulation factor X [1]): 0%
inhibition [2]: 0%
Ki (Prothrombin): 460 nM
inhibition [3]: 0%
SMILES: Cc1cc(OCCCC(=N)N)cc(OS(=O)(=O)c2ccccc2Cl)c1

inhibition (Coagulation factor X [5]): 0%
Ki (Prothrombin): 2100 nM
inhibition [6]: 0%
SMILES: Cc1cc(OC[C@H]2CC[C@H](C(=N)N)CC2)cc(OS(=O)(=O)c2ccccc2Cl)c1

inhibition (Coagulation factor X [9]): 0%
inhibition [10]: 0%
inhibition [11]: 0%
SMILES: CC(=N)N1CCC(COc2cc(C)cc(OS(=O)(=O)c3ccccc3Cl)c2)CC1

Ki (Coagulation factor X [7]): > 15 µM
Ki (Serine protease 1): > 15000 nM
SMILES: Cc1cc(OCC2CCN(C(=N)N)CC2)cc(OS(=O)(=O)c2ccccc2Cl)c1
